Test results as given in ChEMBL document CHEMBL3758163, “Extended structure-activity study of thienopyrimidine-based EGFR inhibitors with evaluation of drug-like properties” (Eur J Med Chem, 2016).

Experiments:
[1] = target: Tyrosine-protein kinase ABL1 (Homo sapiens) (UniProt P00519); test: Inhibition of ABL1 (unknown origin) at 500 nM
[2] = target: T1, Aurora kinase A (Homo sapiens) (UniProt O14965); test: Inhibition of AURKA (unknown origin) at 500 nM
T1 sequence (whole entry): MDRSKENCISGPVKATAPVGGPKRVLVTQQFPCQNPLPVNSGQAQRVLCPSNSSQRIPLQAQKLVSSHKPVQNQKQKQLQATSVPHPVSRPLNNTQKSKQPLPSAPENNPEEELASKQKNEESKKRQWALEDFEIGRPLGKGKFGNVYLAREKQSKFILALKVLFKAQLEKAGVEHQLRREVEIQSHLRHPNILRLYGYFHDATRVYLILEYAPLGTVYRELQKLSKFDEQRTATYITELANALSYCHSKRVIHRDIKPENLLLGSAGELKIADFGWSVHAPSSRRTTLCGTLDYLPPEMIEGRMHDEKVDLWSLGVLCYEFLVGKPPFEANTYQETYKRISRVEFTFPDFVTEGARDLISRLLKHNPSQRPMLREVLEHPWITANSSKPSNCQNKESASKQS

[3] = target: Serine/threonine-protein kinase B-raf (Homo sapiens) (UniProt P15056); test: Inhibition of BRAF (unknown origin) at 500 nM
[4] = target: Macrophage colony-stimulating factor 1 receptor (Homo sapiens) (UniProt P07333); test: Inhibition of CSF1R (unknown origin) at 500 nM
[5] = target: Vascular endothelial growth factor receptor 1 (Homo sapiens) (UniProt P17948); test: Inhibition of FLT1 (unknown origin) at 500 nM
[6] = target: Vascular endothelial growth factor receptor 3 (Homo sapiens) (UniProt P35916); test: Inhibition of FLT4 (unknown origin) at 500 nM
[7] = target: Tyrosine-protein kinase Fyn (Homo sapiens) (UniProt P06241); test: Inhibition of FYN (unknown origin) at 500 nM
[8] = target: Tyrosine-protein kinase HCK (Homo sapiens) (UniProt P08631); test: Inhibition of HCK (unknown origin) at 500 nM
[9] = target: T2, Inhibitor of nuclear factor kappa-B kinase subunit beta (Homo sapiens) (UniProt O14920); test: Inhibition of IKBKB (unknown origin) at 500 nM
T2 sequence (whole entry): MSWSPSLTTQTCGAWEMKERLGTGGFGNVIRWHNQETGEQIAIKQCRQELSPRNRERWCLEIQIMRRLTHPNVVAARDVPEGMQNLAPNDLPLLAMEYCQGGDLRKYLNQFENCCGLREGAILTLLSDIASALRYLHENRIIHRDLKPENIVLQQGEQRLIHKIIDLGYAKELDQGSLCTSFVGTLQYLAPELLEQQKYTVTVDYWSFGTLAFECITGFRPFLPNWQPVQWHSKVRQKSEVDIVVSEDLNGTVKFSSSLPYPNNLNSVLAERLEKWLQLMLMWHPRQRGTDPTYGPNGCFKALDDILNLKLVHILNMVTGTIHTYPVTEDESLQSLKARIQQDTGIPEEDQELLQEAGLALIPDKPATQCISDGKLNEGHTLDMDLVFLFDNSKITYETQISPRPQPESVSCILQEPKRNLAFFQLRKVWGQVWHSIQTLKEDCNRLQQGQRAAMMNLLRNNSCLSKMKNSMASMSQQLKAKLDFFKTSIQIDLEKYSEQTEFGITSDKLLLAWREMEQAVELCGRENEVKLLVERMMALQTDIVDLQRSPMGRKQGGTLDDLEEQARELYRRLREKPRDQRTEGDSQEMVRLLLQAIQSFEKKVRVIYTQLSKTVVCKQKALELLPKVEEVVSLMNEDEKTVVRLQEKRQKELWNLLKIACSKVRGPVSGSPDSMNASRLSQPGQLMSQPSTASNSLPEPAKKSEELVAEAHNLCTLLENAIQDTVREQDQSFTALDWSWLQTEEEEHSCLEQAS

[10] = target: Tyrosine-protein kinase JAK2 (Homo sapiens) (UniProt O60674); test: Inhibition of JAK2 (unknown origin) at 500 nM
[11] = target: Mast/stem cell growth factor receptor Kit (Homo sapiens) (UniProt P10721); test: Inhibition of KIT (unknown origin) at 500 nM
[12] = target: Tyrosine-protein kinase Lyn (Homo sapiens) (UniProt P07948); test: Inhibition of LYN B (unknown origin) at 500 nM
[13] = target: Mitogen-activated protein kinase 1 (Homo sapiens) (UniProt P28482); test: Inhibition of MAPK1 (unknown origin) at 500 nM
[14] = target: Mitogen-activated protein kinase 14 (Homo sapiens) (UniProt Q16539); test: Inhibition of MAPK14 (unknown origin) at 500 nM
[15] = target: Mitogen-activated protein kinase 8 (Homo sapiens) (UniProt P45983); test: Inhibition of MAPK8 (unknown origin) at 500 nM
[16] = target: Protein kinase C theta type (Homo sapiens) (UniProt Q04759); test: Inhibition of PRKCQ (unknown origin) at 500 nM
[17] = target: Focal adhesion kinase 1 (Homo sapiens) (UniProt Q05397); test: Inhibition of PTK2 (unknown origin) at 500 nM
[18] = target: Proto-oncogene tyrosine-protein kinase receptor Ret (Homo sapiens) (UniProt P07949); test: Inhibition of RET (unknown origin) at 500 nM
[19] = target: T3, Testis-specific serine/threonine-protein kinase 2 (Homo sapiens) (UniProt Q96PF2); test: Inhibition of STK22B (unknown origin) at 500 nM
T3 sequence (whole entry): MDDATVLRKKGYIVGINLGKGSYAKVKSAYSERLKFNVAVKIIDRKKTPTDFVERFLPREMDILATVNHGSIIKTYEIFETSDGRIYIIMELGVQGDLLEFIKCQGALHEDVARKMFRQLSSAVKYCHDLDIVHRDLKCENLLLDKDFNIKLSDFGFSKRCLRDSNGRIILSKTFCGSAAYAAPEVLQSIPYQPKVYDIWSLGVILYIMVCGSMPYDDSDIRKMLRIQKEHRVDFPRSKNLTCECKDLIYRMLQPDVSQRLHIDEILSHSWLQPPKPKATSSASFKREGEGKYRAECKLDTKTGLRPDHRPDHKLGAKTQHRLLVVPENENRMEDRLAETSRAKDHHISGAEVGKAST

[20] = target: Tyrosine-protein kinase SYK (Homo sapiens) (UniProt P43405); test: Inhibition of SYK (unknown origin) at 500 nM
[21] = target: Tyrosine-protein kinase Yes (Homo sapiens) (UniProt P07947); test: Inhibition of YES1 (unknown origin) at 500 nM
[22] = Half-life in human liver microsomes at 3 uM by LC-MS/MS analysis; assay type: ADME
[23] = target: Insulin-like growth factor 1 receptor (Homo sapiens) (UniProt P08069); test: Inhibition of IGF1R (unknown origin) at 500 nM
[24] = target: Protein kinase C alpha type (Homo sapiens) (UniProt P17252); test: Inhibition of PRKCA (unknown origin) at 500 nM

Sequence of Vascular endothelial growth factor receptor 3 (Homo sapiens) (P35916 whole entry): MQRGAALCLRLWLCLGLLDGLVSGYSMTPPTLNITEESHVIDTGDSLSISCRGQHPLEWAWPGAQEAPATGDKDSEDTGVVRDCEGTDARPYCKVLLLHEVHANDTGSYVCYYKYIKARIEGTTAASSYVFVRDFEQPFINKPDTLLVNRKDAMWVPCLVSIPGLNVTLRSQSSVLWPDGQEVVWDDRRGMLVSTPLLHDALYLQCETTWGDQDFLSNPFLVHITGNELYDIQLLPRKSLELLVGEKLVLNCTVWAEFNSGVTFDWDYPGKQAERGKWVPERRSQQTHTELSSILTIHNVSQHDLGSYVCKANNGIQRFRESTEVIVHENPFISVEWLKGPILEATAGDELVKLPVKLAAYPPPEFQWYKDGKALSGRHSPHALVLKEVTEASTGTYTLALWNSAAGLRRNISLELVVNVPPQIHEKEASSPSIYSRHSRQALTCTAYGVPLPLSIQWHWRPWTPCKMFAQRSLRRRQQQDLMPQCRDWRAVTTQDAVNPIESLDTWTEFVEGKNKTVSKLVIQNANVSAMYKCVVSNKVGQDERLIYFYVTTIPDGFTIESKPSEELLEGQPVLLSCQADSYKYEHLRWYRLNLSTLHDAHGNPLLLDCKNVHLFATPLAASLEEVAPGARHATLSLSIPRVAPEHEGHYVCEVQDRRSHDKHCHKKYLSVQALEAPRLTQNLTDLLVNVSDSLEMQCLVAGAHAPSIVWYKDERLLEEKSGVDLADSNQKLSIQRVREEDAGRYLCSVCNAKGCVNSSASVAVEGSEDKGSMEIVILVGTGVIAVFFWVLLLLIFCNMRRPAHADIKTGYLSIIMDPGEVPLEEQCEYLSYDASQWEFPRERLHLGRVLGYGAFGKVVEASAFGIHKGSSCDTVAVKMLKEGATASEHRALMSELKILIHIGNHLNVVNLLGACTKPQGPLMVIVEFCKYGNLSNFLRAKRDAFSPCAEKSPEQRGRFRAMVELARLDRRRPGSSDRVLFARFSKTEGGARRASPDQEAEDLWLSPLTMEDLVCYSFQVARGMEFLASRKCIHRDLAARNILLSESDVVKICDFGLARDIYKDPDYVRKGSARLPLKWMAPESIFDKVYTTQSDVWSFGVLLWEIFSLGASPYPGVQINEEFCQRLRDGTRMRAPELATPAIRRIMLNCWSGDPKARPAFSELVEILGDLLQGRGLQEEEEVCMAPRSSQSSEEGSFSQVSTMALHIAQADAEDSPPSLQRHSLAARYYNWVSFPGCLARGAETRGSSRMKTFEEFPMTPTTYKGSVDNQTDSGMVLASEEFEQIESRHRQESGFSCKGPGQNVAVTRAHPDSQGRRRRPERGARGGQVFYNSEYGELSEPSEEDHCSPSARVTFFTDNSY
Sequence of Protein kinase C theta type (Homo sapiens) (Q04759 whole entry, looked up): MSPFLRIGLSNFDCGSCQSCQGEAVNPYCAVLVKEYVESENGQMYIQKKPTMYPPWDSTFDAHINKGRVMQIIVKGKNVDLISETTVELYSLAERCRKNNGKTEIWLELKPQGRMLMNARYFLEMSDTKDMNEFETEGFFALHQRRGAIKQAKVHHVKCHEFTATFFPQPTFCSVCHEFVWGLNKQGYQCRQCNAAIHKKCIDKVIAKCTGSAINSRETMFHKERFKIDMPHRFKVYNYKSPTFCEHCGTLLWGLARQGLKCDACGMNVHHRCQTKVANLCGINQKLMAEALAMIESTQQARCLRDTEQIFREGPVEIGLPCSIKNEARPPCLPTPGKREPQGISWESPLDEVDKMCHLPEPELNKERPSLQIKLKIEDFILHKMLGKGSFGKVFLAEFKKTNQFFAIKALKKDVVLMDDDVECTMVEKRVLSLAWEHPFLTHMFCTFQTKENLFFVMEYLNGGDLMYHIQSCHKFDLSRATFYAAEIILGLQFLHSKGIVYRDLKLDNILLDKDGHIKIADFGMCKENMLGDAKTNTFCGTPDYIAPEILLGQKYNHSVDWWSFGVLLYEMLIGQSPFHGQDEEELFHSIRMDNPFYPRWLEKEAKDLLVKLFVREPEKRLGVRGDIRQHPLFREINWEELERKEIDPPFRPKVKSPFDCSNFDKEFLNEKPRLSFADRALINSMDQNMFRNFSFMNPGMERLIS
Sequence of Tyrosine-protein kinase HCK (Homo sapiens) (P08631 2-526 limits assumed): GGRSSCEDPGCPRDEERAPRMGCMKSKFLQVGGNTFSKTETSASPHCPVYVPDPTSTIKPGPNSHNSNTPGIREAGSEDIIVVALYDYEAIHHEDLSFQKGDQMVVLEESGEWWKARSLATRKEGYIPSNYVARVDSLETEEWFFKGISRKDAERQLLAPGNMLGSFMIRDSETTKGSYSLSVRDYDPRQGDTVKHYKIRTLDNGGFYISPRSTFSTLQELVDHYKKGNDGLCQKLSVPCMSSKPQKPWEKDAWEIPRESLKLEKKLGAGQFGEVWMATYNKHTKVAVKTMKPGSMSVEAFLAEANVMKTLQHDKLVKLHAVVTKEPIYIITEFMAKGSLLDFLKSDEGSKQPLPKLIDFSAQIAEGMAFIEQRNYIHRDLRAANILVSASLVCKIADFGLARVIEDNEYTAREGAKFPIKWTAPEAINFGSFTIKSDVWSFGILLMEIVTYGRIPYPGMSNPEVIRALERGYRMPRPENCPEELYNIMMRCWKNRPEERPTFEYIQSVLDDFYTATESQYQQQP
Sequence of Mitogen-activated protein kinase 14 (Homo sapiens) (Q16539 whole entry): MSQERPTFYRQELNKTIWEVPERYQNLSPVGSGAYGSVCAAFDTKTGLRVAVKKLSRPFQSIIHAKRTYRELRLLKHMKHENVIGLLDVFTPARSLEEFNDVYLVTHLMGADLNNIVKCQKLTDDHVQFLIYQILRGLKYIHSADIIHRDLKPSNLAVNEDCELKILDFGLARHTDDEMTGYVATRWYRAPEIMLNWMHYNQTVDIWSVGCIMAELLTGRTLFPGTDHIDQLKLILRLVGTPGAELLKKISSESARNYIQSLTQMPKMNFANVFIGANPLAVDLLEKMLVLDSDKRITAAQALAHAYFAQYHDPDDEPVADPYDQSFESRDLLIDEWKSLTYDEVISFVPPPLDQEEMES
Sequence of Macrophage colony-stimulating factor 1 receptor (Homo sapiens) (P07333 whole entry): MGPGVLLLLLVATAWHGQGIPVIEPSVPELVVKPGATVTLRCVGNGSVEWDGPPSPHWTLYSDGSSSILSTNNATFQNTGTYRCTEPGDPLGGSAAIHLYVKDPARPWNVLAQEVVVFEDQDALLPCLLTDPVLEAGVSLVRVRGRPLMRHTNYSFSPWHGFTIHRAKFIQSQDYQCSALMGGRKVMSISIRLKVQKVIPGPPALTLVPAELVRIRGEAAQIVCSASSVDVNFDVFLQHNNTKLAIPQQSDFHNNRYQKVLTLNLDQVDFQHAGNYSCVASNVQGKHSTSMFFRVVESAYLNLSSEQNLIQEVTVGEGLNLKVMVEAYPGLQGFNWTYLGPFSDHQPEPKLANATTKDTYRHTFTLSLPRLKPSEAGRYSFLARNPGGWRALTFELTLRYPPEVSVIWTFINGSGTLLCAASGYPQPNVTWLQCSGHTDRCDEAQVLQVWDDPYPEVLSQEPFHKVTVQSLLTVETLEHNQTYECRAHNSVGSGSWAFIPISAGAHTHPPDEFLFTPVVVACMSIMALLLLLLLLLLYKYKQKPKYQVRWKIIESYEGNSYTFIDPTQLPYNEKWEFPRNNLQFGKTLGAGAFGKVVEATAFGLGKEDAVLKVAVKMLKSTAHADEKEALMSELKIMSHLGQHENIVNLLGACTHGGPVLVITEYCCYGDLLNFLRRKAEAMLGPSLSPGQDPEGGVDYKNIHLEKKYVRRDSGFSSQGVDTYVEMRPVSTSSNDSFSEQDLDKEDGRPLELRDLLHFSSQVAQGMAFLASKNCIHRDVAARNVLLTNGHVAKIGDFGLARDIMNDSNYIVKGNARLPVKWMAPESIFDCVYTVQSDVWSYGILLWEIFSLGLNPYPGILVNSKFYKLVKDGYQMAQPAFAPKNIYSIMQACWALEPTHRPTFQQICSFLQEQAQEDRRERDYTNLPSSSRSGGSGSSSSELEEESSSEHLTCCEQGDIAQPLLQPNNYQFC
Sequence of Tyrosine-protein kinase Yes (Homo sapiens) (P07947 2-543 limits assumed): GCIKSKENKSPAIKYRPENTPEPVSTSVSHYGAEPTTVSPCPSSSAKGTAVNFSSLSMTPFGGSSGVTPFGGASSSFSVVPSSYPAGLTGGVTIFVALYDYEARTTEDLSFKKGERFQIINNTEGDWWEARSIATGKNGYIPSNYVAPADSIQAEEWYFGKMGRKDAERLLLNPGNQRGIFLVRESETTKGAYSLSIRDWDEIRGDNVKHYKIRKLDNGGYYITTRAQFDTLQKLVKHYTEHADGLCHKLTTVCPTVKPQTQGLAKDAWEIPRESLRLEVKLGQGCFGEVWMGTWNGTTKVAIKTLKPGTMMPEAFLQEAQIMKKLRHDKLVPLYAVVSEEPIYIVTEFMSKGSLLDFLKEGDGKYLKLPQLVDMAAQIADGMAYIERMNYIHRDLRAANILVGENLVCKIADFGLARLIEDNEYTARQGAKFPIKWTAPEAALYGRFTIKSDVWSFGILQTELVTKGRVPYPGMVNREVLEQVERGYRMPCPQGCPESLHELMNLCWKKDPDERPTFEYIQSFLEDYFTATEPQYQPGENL
Sequence of Mitogen-activated protein kinase 8 (Homo sapiens) (P45983 whole entry): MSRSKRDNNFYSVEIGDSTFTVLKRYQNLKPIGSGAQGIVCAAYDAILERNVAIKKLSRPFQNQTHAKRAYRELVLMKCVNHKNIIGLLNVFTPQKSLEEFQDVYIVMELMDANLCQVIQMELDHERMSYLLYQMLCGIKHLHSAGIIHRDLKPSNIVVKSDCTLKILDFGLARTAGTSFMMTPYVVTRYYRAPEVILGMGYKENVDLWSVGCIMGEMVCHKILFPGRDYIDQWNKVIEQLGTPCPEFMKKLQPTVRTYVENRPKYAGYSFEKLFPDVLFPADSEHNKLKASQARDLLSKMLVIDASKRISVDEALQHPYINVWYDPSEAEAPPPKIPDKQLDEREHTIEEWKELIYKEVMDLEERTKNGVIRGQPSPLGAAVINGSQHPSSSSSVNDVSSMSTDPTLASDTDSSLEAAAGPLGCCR

| SMILES | inhibition [1] | inhibition [2] | inhibition [3] | inhibition [4] | inhibition [5] | inhibition [6] | inhibition [7] | inhibition [8] | inhibition [9] | inhibition [10] | inhibition [11] | inhibition [12] | inhibition [13] | inhibition [14] | inhibition [16] | inhibition [17] | inhibition [18] | inhibition [19] | inhibition [20] | inhibition [21] | other results |
| --- | --- | --- | --- | --- | --- | --- | --- | --- | --- | --- | --- | --- | --- | --- | --- | --- | --- | --- | --- | --- | --- |
| COc1cc(CO)ccc1-c1cc2c(N[C@H](CO)c3ccccc3)ncnc2s1 | 22% | 5% | 20% | 3% | 1% | 1% | 12% | 20% | 1% | 9% | 1% | 56% | 7% | 13% | 1% | 1% | 9% | 8% | 10% | 37% | inhibition [15]: 14%; half-life at 3 µM [22]: 2.57 h |
| C#Cc1cccc(Nc2ncnc3sc(-c4ccc(CO)cc4OC)cc23)c1 | -3% | 14% | 16% | -1% | -7% | 7% | 0% | -4% | -4% | 6% | – | 9% | 1% | – | -5% | 0% | 0% | 2% | 16% | 8% | inhibition [23]: -8%; inhibition [15]: 3%; inhibition [24]: -7% |
| CN(C)CCNC(=O)c1ccc(-c2cc3c(N[C@H](CO)c4ccccc4)ncnc3s2)cc1 | 27% | 6% | 7% | 0% | 5% | 4% | 23% | 15% | 3% | -3% | 1% | 37% | -2% | 9% | 12% | 7% | 20% | 1% | 23% | 21% | inhibition [23]: 0%; inhibition [15]: 8%; half-life at 3 µM [22]: 1.1 h |
| COc1ccc(C(=O)NCCN(C)C)cc1-c1cc2c(N[C@H](C)c3ccccc3)ncnc2s1 | 6% | -4% | 7% | 6% | -8% | 3% | 8% | 15% | 3% | -4% | -1% | 62% | -1% | 8% | 0% | 3% | 7% | 0% | 2% | 43% | inhibition [23]: -2%; half-life at 3 µM [22]: 1.93 h |
| C#Cc1cccc(Nc2ncnc3cc(OCCOC)c(OCCOC)cc23)c1 [ERLOTINIB] | 75% | – | – | 38% | 17% | – | – | – | -5% | 25% | – | – | – | 13% | -4% | -3% | 64% | – | – | – | half-life at 3 µM [22]: 0.533 h |
| C[C@@H](Nc1ncnc2sc(-c3ccc(C(=O)NCCN(C)C)cc3)cc12)c1ccccc1 | 1% | 3% | 23% | 8% | 1% | 13% | 19% | 3% | 7% | -10% | -5% | 41% | 9% | 7% | -5% | 7% | -2% | 11% | 7% | 23% | inhibition [23]: -6%; inhibition [15]: 38%; inhibition [24]: 0% |
| COc1cc(CO)ccc1-c1cc2c(N[C@H](C)c3ccccc3)ncnc2s1 | 7% | 1% | 1% | 2% | 4% | 3% | 1% | 7% | 10% | 7% | 7% | 57% | 1% | 1% | 1% | 6% | 5% | 8% | 8% | 12% | inhibition [15]: 2% |
| C[C@@H](Nc1ncnc2sc(-c3ccccc3C(N)=O)cc12)c1ccccc1 | -5% | 6% | 21% | 3% | 4% | 2% | 7% | 2% | 6% | -8% | -7% | 16% | 9% | 9% | -1% | 5% | -5% | 5% | 6% | 10% | inhibition [23]: -6%; inhibition [15]: 26%; inhibition [24]: 8% |
| COc1cc(CO)ccc1-c1cc2c(Nc3ccccc3)ncnc2s1 | 20% | -3% | 11% | 15% | 9% | 9% | 6% | 28% | 4% | -2% | 11% | 22% | -6% | 8% | -10% | 15% | 26% | 9% | 38% | 20% | inhibition [23]: -3%; inhibition [15]: 17%; inhibition [24]: -1% |
